According to ChEMBL document CHEMBL5465560, “Selectivity Literature for EUbOPEN Chemogenomic Library” (2024):

Legend:
[1] = target: Tyrosine-protein kinase Lck (Homo sapiens, UniProt P06239); assay: Selectivity interaction (Millipore kinase profiler) EUB0000124b LCK; settings: at 10 µM
[2] = target: Serine/threonine-protein kinase pim-3 (Homo sapiens) (UniProt Q86V86); assay: Selectivity interaction (KinomeScan (DiscoverX)) EUB0000229b PIM3; settings: at 10 µM
[3] = target: Serine/threonine-protein kinase 33 (Homo sapiens) (UniProt Q9BYT3); settings: at 10 µM
[4] = target: T1, Histone-lysine N-methyltransferase SMYD3 (Homo sapiens) (UniProt Q9H7B4); assay: Selectivity interaction (Transferase panel (protein, RNA, and DNA methyltransferases. and EP300 (acetyltransferase))) EUB0000270b SMYD3
T1 sequence (whole entry): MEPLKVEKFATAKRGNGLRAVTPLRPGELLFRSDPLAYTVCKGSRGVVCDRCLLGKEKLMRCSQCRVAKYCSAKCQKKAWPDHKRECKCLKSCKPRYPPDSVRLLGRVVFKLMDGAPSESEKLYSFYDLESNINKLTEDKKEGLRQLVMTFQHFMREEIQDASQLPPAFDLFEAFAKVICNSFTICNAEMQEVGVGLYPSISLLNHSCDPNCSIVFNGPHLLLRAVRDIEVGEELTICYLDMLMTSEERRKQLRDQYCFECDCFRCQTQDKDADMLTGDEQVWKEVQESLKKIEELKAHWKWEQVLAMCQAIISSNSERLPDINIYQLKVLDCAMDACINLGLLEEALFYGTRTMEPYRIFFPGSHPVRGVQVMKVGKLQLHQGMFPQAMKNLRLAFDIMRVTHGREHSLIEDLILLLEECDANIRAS

[5] = target: T2, Serine/threonine-protein kinase D3 (Homo sapiens) (UniProt O94806); assay: Selectivity interaction (ActivX KiNativ screen (kinase selectivity in THP-1 cell lysates)) EUB0000639a PRKD3; format: subcellular; settings: lysate, at 1 µM
T2 sequence (whole entry): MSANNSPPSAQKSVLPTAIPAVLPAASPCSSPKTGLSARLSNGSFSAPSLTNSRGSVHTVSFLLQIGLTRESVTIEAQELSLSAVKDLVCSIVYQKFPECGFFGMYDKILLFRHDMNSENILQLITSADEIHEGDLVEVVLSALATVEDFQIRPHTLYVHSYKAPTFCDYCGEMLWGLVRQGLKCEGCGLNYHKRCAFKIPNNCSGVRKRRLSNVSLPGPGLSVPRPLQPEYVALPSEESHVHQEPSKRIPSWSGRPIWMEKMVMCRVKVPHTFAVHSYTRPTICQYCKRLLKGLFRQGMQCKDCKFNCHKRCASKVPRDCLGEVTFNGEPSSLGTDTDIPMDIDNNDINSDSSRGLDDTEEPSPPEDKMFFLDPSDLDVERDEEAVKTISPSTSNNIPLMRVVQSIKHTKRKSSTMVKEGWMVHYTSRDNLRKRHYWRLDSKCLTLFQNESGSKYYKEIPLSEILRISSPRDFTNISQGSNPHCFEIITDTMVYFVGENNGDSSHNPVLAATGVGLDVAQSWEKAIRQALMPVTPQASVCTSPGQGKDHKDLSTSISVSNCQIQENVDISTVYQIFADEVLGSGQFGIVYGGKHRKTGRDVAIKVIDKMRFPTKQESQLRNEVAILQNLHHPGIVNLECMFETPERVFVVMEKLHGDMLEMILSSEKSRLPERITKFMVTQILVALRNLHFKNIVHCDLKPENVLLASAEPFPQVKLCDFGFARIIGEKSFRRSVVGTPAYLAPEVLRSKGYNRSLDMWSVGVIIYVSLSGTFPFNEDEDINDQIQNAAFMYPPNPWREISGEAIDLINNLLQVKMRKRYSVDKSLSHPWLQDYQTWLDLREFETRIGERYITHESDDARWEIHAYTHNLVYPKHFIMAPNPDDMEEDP

[6] = target: Vascular endothelial growth factor receptor 2 (Homo sapiens, UniProt P35968)
[7] = target: T3, Ephrin type-A receptor 8 (Homo sapiens) (UniProt P29322); assay: Selectivity interaction (KinomeScan (DiscoverX)) EUB0001619a EPHA8; settings: at 1 µM
T3 sequence (whole entry): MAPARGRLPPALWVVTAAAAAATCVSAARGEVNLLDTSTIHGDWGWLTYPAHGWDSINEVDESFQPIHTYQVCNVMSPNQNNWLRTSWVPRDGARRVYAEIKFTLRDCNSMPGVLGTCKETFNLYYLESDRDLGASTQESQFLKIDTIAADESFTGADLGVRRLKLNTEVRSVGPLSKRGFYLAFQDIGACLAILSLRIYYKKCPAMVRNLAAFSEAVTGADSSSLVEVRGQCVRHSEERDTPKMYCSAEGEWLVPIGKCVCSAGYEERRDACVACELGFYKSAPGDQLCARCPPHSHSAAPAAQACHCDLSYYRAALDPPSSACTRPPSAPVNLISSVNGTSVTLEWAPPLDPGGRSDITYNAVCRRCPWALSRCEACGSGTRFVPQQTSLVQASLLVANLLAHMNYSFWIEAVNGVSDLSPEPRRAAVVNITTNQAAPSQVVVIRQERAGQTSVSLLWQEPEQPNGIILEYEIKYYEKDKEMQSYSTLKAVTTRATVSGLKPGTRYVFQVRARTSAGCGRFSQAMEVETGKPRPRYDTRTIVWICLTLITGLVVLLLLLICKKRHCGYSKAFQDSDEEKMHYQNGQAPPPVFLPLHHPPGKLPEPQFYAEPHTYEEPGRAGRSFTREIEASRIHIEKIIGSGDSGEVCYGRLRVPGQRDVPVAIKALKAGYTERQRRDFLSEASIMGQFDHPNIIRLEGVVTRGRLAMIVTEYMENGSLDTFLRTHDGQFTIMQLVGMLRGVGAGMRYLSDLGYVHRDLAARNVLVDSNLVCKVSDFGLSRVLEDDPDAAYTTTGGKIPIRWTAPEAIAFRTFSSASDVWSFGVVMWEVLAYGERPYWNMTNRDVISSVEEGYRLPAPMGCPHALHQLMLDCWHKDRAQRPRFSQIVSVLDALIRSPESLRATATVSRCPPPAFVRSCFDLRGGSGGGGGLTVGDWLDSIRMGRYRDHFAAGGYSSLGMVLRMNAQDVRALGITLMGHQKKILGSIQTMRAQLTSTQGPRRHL

Sequence of Tyrosine-protein kinase Lck (P06239 2-509 limits assumed): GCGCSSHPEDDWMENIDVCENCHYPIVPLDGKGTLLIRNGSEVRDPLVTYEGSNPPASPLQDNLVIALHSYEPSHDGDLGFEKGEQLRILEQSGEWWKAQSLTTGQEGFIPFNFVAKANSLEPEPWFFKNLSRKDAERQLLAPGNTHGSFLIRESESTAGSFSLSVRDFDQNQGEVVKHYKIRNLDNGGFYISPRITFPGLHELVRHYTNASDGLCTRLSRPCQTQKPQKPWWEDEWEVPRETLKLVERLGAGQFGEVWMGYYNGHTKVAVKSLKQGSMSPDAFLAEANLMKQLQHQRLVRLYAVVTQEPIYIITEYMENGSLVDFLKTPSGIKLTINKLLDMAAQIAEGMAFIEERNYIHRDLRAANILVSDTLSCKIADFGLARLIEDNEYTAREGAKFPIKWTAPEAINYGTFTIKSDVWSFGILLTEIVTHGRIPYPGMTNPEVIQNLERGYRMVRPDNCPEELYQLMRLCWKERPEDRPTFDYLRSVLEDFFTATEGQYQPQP
Sequence of Vascular endothelial growth factor receptor 2 (P35968 whole entry): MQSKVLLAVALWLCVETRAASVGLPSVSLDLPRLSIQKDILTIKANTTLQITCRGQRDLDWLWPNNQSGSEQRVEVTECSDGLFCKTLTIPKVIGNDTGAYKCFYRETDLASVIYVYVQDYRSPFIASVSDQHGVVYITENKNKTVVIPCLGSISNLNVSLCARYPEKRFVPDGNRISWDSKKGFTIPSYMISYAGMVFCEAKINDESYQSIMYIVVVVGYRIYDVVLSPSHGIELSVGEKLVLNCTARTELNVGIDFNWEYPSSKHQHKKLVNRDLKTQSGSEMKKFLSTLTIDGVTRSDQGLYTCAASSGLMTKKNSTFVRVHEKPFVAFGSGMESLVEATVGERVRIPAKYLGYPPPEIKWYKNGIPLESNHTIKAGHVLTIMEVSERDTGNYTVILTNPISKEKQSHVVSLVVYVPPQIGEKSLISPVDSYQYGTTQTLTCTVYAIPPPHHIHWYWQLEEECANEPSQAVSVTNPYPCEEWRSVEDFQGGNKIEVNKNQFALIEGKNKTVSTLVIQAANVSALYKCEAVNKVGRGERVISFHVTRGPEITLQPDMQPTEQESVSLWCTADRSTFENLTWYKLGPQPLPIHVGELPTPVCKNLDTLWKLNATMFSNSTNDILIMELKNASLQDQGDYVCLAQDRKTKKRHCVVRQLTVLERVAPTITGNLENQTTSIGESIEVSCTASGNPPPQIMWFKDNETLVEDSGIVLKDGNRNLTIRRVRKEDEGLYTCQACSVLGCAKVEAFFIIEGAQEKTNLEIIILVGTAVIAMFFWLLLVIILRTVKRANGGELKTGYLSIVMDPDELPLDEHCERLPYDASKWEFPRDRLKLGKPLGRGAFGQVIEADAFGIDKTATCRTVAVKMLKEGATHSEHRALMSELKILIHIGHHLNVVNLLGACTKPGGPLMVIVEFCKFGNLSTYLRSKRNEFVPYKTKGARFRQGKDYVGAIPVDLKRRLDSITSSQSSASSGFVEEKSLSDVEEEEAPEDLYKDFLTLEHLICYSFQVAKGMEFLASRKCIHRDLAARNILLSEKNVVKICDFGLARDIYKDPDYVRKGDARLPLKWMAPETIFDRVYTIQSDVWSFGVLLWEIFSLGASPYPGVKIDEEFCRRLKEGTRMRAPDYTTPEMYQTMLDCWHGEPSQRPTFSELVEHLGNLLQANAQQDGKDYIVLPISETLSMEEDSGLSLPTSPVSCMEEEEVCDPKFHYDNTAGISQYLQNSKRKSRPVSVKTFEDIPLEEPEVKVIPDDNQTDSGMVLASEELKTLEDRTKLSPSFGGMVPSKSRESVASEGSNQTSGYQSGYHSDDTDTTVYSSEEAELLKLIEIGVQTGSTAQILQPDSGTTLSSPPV
Sequence of Serine/threonine-protein kinase 33 (Homo sapiens) (Q9BYT3 whole entry, looked up): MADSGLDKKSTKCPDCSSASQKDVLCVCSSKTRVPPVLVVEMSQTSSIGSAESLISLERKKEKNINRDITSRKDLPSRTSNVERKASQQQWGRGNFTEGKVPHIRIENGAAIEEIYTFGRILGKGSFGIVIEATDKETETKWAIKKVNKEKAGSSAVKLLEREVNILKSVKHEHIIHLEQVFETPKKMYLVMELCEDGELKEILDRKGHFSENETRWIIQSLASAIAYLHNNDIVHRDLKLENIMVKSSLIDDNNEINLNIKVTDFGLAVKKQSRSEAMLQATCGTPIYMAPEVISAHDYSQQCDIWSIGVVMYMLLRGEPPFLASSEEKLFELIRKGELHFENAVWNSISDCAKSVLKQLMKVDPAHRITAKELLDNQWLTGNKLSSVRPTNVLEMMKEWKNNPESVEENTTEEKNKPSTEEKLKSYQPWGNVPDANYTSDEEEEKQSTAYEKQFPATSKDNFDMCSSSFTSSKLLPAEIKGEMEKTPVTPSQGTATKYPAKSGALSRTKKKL

CC(=O)Nc1cccc(-n2c(=O)n(C3CC3)c(=O)c3c(Nc4ccc(I)cc4F)n(C)c(=O)c(C)c32)c1
% of control [1]: 110%

COc1cc(N(C)c2ccnc3ccc(C(F)(F)F)cc23)cc(OC)c1OC
% binding [2]: 78%

CCN(CC)CCCCNc1ncc2cc(-c3cc(OC)cc(OC)c3)c(NC(=O)NC(C)(C)C)nc2n1
% of control [3]: 100%

Cc1cc(CN)cc(C)c1-c1ncn(C)c1-c1cncn1C
% activity ([4]; at 1 µM): > 90%
% activity ([4]; at 10 µM): > 80%

CC[C@@H]1[C@H](F)C(=O)N[C@@H]1COc1nccc2cc(C(N)=O)c(OC)cc12 [ZIMLOVISERTIB]
% of inhibition [5]: 1.2%

CCc1cccc(CC)c1NC(=O)c1nn(C)c2c1CCc1cnc(Nc3ccc(C(=O)NC4CCN(C)CC4)cc3OC(F)(F)F)nc1-2
IC50 [6]: > 10 µM

N#Cc1cccc(-c2c[nH]c3ncnc(N4CCOCC4)c23)c1
% of control [7]: 100%
